Results on five compounds are retold here after patent US20250026748A1, “N-(5-SUBSTITUTED-[(1,3,4-THIADIAZOLYL) OR (THIAZOLYL)])(SUBSTITUTED)CARBOXAMIDE COMPOUNDS AND USE THEREOF FOR INHIBITING HUMAN POLYMERASE THETA” (Repare Therapeutics Inc., priority 2021, published 2025).

Data set [1] deals with T1, CYP3A4 (Homo sapiens (Human), UniProt P08684). Nature of the data set: Reversible CYP inhibition in human liver microsomes (midazolam probe). It is filed as in vitro ADME. The conditions noted are these: human liver microsomes 0.1 mg/mL, 2.5 μM midazolam, 5 min, test compound up to 30 μM. On the procedure:
A seven-point semi-log dilution of each test compound (up to […]) or positive control inhibitors for CYP2C9 (up to 1000 nM sulphenazole), CYP2D6 (up to 500 nM quinidine) and CYP3A4 (up to 250 nM ketoconazole) were dissolved in DMSO and added to the incubation plate using a Tecan 300 (normalized for 0.3% DMSO content). Final reaction conditions were: human liver microsomes (0.1 mg/mL), potassium phosphate buffer 100 mM pH 7.4, 1 mM magnesium chloride, 5 NM diclofenac, 5 NM dextromethorphan and 2.5 μM midazolam. After a pre-incubation at 37 00. The reaction was started with the addition of NADPH solution at the final concentration of 1 mM and carried out at 37 00 for 5 minutes. The reaction was stopped by the addition of 1 volume of cold acetonitrile with internal standard (labetalol) to the incubation plate. The incubation plate was centrifuged at 3000 rpm for 10 minutes to precipitate proteins, and the supernatant was analyzed by LC-MS/MS. Metabolite area ratio (4-OH-diclofenac, dextrorphan and 1-OH-midazolam) versus ISTD area ratio was used as the quantitative signal. Data were analyzed using the plot log of concentration (×-axis) versus the percentage of inhibition (y axis) and the IC50, Hill Slope and R^2 were determined.
In general terms: Microsomes from liver hold many membrane-bound enzymes, among them those of drug oxidation.

The nature of data set [2]: Liver microsomal stability assay. It is filed as in vitro ADME. The conditions noted are these: pH 7.4; human liver microsomes 0.5 mg/mL, 1 μM compound, NADPH 1 mM, 37 °C. On the procedure: Liver microsomes were thawed on ice prior to use. The incubation mixtures were prepared in 96-well plates and contained test compound or control (1 μM), liver microsomes (0.5 mg of microsomal protein/mL), MgCl2 (5 mM), phosphate buffer (100 mM, pH 7.4), 0.01% DMSO and 1% acetonitrile. A T=0 aliquot was withdrawn after 10 min pre-incubation at 37° C. on a shaker. Reactions were initiated by the addition of NADPH (final concentration of 1 mM) and the plate was kept on a shaker at 37° C., further samples were withdrawn at 5, 15, 30, and 60 minutes. At each timepoint, the reactions were immediately terminated by adding of ice-cold acetonitrile containing internal standard to the withdrawn sample. The extracted samples were centrifuged for 10 minutes at 3200 rpm to pellet the precipitated microsomal protein, and the supernatant was combined 1:1 with water and analyzed by LC-MS/MS. Using the T=0 peak area ratio as 100%, the percentage of parent compound remaining was calculated. For each compound, the In percentage remaining versus incubation time was plotted and the slope of this linear regression (−k) was converted to an in vitro T1/2 value and CLint using the equations below.

The target of data set [3] is T1, CYP3A4. Nature of the data set: TDI method: time-dependent CYP inhibition, IC50 shift -NADPH/+NADPH. The following applies: IC50 (-NADPH) divided by IC50 (+NADPH), 30 min pre-incubation, human liver microsomes. It is filed as in vitro ADME. On the procedure: Test compound or positive control inhibitors (CYP2C9: Tienilic acid; CYP2D6: paroxetine; CYP3A4: mifepristone) were dissolved in DMSO and a semi-log dilution (up to 50.0 μM) was prepared to 2 incubation plates and normalized for a final DMSO content of 0.5%. Human liver microsomes were diluted at 1 mg/mL with 100 mM potassium phosphate buffer pH 7.4 (1 mM MgCl2) and added to both incubation plates. After pre-incubation at 37° C., the reaction was started with the addition of NADPH (+NADPH condition) or with water (-NADPH condition). Plates were incubated for 30 min and 8 μL were transferred to a second incubation plate containing 72 μL of 1 mM NADPH, 20 μM diclofenac (CYP2C9), 20 μM dextromethorphan (CYP2D6) and 10 μM midazolam (CYP3A4) in 100 mM potassium phosphate buffer pH 7.4 (1 mM MgCl2). Plates were incubated for 10 min and the reaction was stopped by the addition of cold acetonitrile containing internal standard (1:1 v/v). Incubation plates were centrifuged at 3000 rpm for 10 minutes to precipitate protein, and the supernatant was used for LC-MS/MS analysis. Metabolite area ratio (4-OH-diclofenac, dextrorphan and 1-OH-midazolam) versus internal standard area ratio was used as the quantitative signal. Data were analyzed using the plot log of concentration (x axis) versus the percentage of inhibition (y axis) and IC50, Hill Slope and R^2 were determined. The IC50 shift was then calculated by dividing the IC50-NADPH condition by the IC50 obtained in the +NADPH condition.

Another data set has as its target PXR nuclear receptor (Homo sapiens (Human), UniProt O75469). Briefly: PXR method: luciferase reporter gene activation in transfected tumor cells. Format: cell-based. The following applies: test compound 0.03-10 μM; for fold induction at 24 h: compared with vehicle-treated cells, read-out: PXR activation (Max fold induction); for PXR activation (% Max activity): percentage of the response given by Rifampicin at 10 μM, 24 h. The procedure:
An expression vector harboring a full-length PXR nuclear receptor plus the appropriate enhancers and promoters linked to the luciferase reporter gene were integrated into the tumor cells. Tumor cells transfected with the species-specific nuclear receptor and the corresponding response elements were seeded in a 96-well plate. Twenty-four hours after seeding, the cells were treated with six distinct concentrations (0.03-10 μM) of the test compound. The cells were then returned to the incubator for an additional 24 h. After this incubation period, the number of viable cells/well were determined using Promega's Cell Titer Fluor cytotoxicity assay. At the end of the assay, Promega's ONE-Glo was added to assess the receptor activation by monitoring reporter gene activity, and by comparing the results to vehicle-treated cells. Activation data were normalized to the number of viable cells/well. Results are expressed as a percentage of the response given by Rifampicin, the positive control, at a 10 μM dose.
(In general: Reporter assays use an easily measured gene product as a stand-in for the process of interest.)

Data set [4] concerns the target PolQ ATPase enzyme (1-894) (Homo sapiens (Human), UniProt O75417). Briefly: Polθ ATPase enzymatic assay (0.5 nM enzyme concentration), ADP-Glo. It is filed as biochemical. The conditions noted are these: average IC50; 0.5 nM PolQ ATPase enzyme (1-894). The procedure, abridged:
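Enzyme (0.5 nM) pre-incubated 15 min at rt with 10-point inhibitor series in 50 mM Tris pH 7.5, 10% glycerol, 5 mM DTT, 10 mM MgCl2, 0.1 mg/ml BSA; reaction started with 20 nM fork DNA and 100 μM ATP, run 180 min at rt. ADP-Glo luminescence; IC50 from 4-parameter variable-slope fit.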
(In general: ADP-Glo first removes unused ATP, then detects ADP through luciferase.)

T1 sequence (P08684 whole entry): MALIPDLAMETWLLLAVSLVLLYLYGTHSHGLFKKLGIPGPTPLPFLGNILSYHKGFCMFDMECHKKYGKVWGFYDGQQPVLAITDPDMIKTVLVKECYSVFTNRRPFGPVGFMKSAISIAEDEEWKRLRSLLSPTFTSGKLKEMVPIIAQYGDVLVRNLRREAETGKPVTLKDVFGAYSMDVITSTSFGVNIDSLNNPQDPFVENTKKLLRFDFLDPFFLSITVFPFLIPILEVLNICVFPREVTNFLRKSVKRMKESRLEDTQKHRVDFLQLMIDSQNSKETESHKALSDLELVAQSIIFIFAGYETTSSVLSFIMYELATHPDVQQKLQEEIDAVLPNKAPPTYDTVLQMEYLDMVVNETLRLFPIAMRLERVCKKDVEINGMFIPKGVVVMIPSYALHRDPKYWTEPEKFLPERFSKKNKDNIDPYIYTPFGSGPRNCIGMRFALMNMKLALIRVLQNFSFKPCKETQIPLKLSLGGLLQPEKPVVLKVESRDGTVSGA
PXR nuclear receptor, sequence (O75469 whole entry): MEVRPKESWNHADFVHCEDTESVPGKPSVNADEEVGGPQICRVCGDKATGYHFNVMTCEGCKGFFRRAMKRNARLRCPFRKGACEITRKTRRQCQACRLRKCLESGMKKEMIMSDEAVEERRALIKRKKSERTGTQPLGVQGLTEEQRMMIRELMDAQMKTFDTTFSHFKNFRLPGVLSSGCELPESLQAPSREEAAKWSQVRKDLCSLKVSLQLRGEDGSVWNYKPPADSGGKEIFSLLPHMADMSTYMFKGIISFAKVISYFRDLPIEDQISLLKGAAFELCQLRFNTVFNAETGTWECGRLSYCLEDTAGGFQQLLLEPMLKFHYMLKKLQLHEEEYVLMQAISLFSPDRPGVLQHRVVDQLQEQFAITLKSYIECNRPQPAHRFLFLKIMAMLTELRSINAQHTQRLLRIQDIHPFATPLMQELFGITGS
PolQ ATPase enzyme (1-894), sequence (O75417 1-894): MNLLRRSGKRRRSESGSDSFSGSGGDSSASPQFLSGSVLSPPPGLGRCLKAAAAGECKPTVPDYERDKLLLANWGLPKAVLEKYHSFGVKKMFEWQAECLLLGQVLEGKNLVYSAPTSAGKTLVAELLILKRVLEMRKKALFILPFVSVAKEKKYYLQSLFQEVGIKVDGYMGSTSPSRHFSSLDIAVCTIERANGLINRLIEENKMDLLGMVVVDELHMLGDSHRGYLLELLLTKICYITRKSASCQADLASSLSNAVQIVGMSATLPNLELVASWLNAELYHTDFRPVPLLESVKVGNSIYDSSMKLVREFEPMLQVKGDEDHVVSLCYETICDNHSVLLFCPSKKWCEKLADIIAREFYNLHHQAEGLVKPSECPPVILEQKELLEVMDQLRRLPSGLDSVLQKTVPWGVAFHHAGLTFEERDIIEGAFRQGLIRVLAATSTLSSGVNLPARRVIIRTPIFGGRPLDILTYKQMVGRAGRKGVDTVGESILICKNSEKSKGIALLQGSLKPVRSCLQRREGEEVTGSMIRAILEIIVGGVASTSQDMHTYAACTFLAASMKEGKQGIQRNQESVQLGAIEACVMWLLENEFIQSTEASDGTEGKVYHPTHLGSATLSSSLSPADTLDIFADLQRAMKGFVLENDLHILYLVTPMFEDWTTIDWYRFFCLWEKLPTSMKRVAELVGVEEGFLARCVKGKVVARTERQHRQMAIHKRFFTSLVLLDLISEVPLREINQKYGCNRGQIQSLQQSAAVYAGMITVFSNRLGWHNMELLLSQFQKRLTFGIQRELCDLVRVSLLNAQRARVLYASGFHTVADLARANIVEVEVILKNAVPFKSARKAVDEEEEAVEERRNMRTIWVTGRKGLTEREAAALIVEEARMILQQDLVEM

On to `COc1ccc(F)cc1-c1cnccc1C(=O)Nc1nnc(OCc2ccc(C#N)cc2)s1`, for which the half-maximal inhibitory concentration (IC50) (commonly the midpoint of a concentration-inhibition curve) on CYP3A4 [1] worked out at 234 nM. In addition, the microsomal CLint (usually the rate of metabolic loss divided by the concentration) at 1 μM in data set [2] was 174 µL/min/mg. Moreover, at CYP3A4 [3], the “Time-dependent CYP3A4 inhibition-shift after 30 min with NADPH” value (from here on “Time-dependent CYP3A4 inhibition-shift”) worked out at 1x. In addition, on PXR nuclear receptor, the fold induction at 24 h is 3.9 and the “PXR activation (% Max activity)” value came to 17%.

For the compound `COc1ccccc1-c1cnccc1C(=O)Nc1nnc(OCc2ccc(Cl)cc2)s1`, inhibition at CYP3A4 [1] was half-maximal at 1170 nM (IC50). Also, in data set [2], the intrinsic clearance (microsomal CLint) at 1 μM was found to be 262 µL/min/mg. At CYP3A4 [3], the “Time-dependent CYP3A4 inhibition-shift” value is reported as greater than 6.5x. Also, on PXR nuclear receptor, the fold induction at 24 h amounted to 8.8 and the “PXR activation (% Max activity)” value is reported as 46.0%.

As to `COc1ccccc1-c1cnccc1C(=O)Nc1nnc(OCc2ccc(C#N)cc2)s1`, the IC50 at CYP3A4 [1] came to 450 nM. This compound also displayed a microsomal CLint at 1 μM in data set [2] of 234 µL/min/mg. In addition, the “Time-dependent CYP3A4 inhibition-shift” value on CYP3A4 [3] turned out to be 3.6x. For the same compound, at PXR nuclear receptor, the fold induction at 24 h was found to be 7.9 and the “PXR activation (% Max activity)” value worked out at 36.0%.

`C=C(C1=CN=CCC1C(=O)Nc1nnc(CCC2CC2)s1)/C(=C\N=C\Cl)OC` (centres unmarked): on CYP3A4 [1], the half-inhibitory concentration (IC50) is greater than 30000 nM. The same compound returned a microsomal CLint at 1 μM in data set [2] of less than 7.7 µL/min/mg. The “Time-dependent CYP3A4 inhibition-shift” value at CYP3A4 [3] is recorded as 1x. In addition, on PXR nuclear receptor, the fold induction at 24 h came to 1.8 and the “PXR activation (% Max activity)” value amounted to 5.0%.

On to `COc1ccccc1-c1cnccc1C(=O)Nc1nnc(C#Cc2ccc(Cl)cc2)s1` [Compound 474], for which the results for the 50% inhibitory concentration (IC50) (in data set [4]; on CYP3A4 [1]) were 7.6 nM and 1940 nM, respectively. The microsomal CLint at 1 μM in data set [2] was determined as 22.5 µL/min/mg. Besides, the “Time-dependent CYP3A4 inhibition-shift” value at CYP3A4 [3] is reported as 1x. Also, the fold induction at 24 h on PXR nuclear receptor was 1.5. The “PXR activation (% Max activity)” value at PXR nuclear receptor worked out at 3.0%.
